Experiments:
Experiment in all cases: KINOMEscan competition binding
Conditions in all cases: compound 10.0 µM
[1] = target: AAK1 (human) (UniProt Q2M2I8)
[2] = target: ABL2 (human) (UniProt P42684)
[3] = target: ACVR1 (human) (UniProt Q04771)
[4] = target: ADCK4 (human) (UniProt Q96D53)
[5] = target: AXL (human) (UniProt P30530)
[6] = target: CAMK1G (human) (UniProt Q96NX5)
[7] = target: EPHA7 (human) (UniProt Q15375)
[8] = target: EPHB4 (human) (UniProt P54760)
[9] = target: FGFR4 (human) (UniProt P22455)
FGFR4 (human), sequence (P22455 whole entry, looked up): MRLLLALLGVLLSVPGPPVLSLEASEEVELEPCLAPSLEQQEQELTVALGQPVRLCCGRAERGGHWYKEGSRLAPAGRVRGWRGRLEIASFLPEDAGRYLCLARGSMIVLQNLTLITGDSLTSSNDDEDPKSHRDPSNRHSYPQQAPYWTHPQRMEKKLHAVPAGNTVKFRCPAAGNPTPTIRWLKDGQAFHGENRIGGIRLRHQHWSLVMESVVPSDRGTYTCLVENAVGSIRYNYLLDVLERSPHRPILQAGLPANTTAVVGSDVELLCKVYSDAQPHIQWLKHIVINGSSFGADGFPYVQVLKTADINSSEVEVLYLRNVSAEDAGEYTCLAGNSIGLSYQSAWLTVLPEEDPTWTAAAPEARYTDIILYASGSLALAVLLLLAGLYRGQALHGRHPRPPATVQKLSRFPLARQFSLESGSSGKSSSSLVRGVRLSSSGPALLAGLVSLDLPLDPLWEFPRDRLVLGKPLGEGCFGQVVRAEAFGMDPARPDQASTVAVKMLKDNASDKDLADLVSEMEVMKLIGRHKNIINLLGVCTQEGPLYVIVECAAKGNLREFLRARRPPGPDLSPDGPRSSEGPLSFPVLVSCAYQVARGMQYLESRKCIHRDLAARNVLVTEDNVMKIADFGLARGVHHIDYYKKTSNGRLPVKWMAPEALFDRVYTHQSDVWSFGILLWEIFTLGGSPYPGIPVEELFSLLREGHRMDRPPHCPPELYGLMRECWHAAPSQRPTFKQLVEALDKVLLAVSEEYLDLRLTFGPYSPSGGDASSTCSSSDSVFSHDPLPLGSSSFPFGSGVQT

[10] = system: FLT3 (human), P36888 [ITD]
[11] = target: HCK (human) (UniProt P08631)
[12] = target: IGF1R (human) (UniProt P08069)
[13] = target: IKBKB (human) (UniProt O14920)
[14] = target: ITK (human) (UniProt Q08881)
[15] = target: JAK1 JH2 pseudokinase (human) (UniProt P23458)
[16] = target: LIMK1 (human) (UniProt P53667)
[17] = target: MARK4 (human) (UniProt Q96L34)
[18] = target: MYO3A (human) (UniProt Q8NEV4)
[19] = target: NEK1 (human) (UniProt Q96PY6)
[20] = target: PDPK1 (human) (UniProt O15530)
[21] = target: PKMYT1 (human) (UniProt Q99640)
[22] = target: PKN1 (human) (UniProt Q16512)
PKN1 (human), sequence (Q16512 whole entry, looked up): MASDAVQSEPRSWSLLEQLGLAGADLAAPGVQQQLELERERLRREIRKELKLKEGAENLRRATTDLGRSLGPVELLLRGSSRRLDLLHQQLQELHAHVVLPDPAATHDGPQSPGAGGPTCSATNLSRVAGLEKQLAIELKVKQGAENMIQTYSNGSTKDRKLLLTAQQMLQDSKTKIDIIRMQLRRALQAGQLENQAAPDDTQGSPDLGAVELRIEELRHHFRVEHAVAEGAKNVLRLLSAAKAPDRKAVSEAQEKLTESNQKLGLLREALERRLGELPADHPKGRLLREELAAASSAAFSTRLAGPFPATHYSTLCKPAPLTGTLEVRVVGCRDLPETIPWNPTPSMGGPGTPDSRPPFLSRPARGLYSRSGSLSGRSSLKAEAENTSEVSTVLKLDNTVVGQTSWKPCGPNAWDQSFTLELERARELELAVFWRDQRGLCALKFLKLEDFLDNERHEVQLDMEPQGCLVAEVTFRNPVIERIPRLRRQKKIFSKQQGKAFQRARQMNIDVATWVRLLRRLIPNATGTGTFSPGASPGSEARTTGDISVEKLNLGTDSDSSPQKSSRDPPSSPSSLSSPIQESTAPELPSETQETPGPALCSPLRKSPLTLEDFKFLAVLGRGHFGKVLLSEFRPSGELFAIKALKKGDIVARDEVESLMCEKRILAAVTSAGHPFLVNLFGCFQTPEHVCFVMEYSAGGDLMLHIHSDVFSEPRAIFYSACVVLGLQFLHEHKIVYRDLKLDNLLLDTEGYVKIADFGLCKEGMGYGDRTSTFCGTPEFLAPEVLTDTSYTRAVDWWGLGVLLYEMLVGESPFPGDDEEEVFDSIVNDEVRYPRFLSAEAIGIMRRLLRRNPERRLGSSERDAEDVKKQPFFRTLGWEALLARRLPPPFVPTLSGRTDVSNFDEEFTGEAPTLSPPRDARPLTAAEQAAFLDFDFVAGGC

[23] = target: PKN2 (human) (UniProt Q16513)
[24] = target: PLK4 (human) (UniProt O00444)
[25] = target: PRKCD (human) (UniProt Q05655)
[26] = target: PRKD3 (human) (UniProt O94806)
[27] = target: PTK2 (human) (UniProt Q05397)
PTK2 (human), sequence (Q05397 whole entry, looked up): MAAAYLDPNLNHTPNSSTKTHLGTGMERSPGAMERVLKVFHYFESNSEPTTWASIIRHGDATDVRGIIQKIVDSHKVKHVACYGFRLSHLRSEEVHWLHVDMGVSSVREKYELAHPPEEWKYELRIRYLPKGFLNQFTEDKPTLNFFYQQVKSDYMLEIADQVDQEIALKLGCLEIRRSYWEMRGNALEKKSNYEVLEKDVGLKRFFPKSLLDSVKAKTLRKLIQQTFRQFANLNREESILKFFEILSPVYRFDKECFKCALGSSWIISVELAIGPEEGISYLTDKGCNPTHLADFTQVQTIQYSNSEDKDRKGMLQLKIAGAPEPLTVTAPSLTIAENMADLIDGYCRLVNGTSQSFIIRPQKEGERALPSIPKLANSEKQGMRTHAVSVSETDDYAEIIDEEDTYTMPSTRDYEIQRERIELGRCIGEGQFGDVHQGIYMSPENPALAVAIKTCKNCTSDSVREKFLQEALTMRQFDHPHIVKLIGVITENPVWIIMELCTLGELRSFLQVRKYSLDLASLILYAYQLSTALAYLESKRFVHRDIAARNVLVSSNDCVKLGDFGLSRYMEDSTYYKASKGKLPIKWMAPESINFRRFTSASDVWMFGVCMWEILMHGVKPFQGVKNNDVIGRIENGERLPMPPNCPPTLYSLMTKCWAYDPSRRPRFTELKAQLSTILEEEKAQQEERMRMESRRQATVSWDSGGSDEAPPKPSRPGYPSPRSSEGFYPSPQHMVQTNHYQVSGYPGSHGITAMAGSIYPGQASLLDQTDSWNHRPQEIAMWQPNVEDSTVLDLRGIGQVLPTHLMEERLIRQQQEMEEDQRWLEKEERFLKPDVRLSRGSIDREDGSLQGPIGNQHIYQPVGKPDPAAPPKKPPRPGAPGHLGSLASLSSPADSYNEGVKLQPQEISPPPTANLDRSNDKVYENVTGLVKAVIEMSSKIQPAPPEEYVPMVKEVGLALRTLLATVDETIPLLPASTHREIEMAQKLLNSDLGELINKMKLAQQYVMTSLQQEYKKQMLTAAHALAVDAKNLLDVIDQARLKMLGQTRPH

[28] = target: RIOK3 (human) (UniProt O14730)
[29] = target: RPS6KA2 KD2 (human) (UniProt Q15349)
[30] = target: RPS6KA4 KD1 (human) (UniProt O75676)
[31] = target: SRPK3 (human) (UniProt Q9UPE1)
[32] = target: STK25 (human) (UniProt O00506)
[33] = target: STK3 (human) (UniProt Q13188)
[34] = target: STK32C (human) (UniProt Q86UX6)
[35] = target: TEC (human) (UniProt P42680)
[36] = target: TGFBR1 (human) (UniProt P36897)
[37] = target: TNK1 (human) (UniProt Q13470)
[38] = target: ULK2 (human) (UniProt Q8IYT8)
[39] = target: WEE2 (human) (UniProt P0C1S8)
[40] = target: ZAP70 (human) (UniProt P43403)
ZAP70 (human), sequence (P43403 whole entry, looked up): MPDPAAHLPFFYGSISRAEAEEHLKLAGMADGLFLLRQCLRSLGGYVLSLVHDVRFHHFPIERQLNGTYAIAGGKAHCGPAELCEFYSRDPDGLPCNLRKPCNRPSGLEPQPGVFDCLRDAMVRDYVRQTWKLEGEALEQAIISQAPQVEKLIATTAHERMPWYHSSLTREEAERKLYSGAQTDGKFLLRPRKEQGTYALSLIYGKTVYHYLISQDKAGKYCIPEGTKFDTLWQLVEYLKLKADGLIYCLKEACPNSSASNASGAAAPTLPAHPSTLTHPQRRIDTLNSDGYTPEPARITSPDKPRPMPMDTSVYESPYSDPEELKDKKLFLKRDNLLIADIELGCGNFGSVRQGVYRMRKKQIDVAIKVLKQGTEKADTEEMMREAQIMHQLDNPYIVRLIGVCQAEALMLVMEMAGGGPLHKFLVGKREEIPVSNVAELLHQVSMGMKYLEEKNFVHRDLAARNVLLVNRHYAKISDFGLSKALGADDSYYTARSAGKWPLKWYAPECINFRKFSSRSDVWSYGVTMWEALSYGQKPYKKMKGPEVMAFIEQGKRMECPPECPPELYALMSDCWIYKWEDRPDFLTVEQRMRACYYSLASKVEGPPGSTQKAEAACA

AXL (human), sequence (P30530 whole entry, looked up): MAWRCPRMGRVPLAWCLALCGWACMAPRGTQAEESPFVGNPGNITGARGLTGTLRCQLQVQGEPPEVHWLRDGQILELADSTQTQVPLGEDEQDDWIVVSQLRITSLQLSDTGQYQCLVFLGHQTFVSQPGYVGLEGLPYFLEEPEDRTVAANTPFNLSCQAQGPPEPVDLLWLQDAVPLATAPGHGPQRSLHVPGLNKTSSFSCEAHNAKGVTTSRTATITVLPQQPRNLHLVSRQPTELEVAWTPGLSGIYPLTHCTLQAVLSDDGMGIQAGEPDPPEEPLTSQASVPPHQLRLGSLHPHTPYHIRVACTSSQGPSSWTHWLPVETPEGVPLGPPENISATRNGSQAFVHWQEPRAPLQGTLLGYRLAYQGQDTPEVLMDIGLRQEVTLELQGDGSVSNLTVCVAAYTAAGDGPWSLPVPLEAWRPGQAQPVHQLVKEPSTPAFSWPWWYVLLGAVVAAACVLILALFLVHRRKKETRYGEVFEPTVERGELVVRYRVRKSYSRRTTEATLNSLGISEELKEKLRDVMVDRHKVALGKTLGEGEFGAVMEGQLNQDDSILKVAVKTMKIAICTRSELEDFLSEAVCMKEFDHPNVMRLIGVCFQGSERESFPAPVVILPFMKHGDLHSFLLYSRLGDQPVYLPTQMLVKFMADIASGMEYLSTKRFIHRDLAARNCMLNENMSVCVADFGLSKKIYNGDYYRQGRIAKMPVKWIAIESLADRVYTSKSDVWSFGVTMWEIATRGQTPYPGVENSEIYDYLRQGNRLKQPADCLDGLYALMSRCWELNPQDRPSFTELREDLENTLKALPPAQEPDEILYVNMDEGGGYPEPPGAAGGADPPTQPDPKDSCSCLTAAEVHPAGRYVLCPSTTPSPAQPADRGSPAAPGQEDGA
ADCK4 (human), sequence (Q96D53 whole entry, looked up): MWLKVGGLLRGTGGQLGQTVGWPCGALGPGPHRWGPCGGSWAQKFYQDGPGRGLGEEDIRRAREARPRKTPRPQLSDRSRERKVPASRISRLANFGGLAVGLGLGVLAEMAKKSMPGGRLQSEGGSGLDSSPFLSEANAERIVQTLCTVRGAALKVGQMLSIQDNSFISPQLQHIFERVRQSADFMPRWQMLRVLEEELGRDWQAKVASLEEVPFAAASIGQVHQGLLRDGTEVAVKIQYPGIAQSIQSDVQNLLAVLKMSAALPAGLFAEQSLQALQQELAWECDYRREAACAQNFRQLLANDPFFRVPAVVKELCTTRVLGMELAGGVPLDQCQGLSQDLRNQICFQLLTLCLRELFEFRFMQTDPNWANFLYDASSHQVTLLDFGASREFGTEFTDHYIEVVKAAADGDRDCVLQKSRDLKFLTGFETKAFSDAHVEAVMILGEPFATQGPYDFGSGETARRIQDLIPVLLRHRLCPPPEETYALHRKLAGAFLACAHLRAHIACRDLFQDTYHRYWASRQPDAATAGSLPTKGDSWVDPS

Row | Structure (SMILES) | kinase still bound, per cent of control [1] | kinase still bound, per cent of control [2] | kinase still bound, per cent of control [3] | kinase still bound, per cent of control [4] | kinase still bound, per cent of control [5] | kinase still bound, per cent of control [6] | kinase still bound, per cent of control [7] | kinase still bound, per cent of control [8] | kinase still bound, per cent of control [9] | kinase still bound, per cent of control [10] | kinase still bound, per cent of control [11] | kinase still bound, per cent of control [12] | kinase still bound, per cent of control [13] | kinase still bound, per cent of control [14] | kinase still bound, per cent of control [15] | kinase still bound, per cent of control [16] | kinase still bound, per cent of control [17] | kinase still bound, per cent of control [18] | kinase still bound, per cent of control [19] | kinase still bound, per cent of control [20] | other results
1 | C=CC(=O)Nc1cc(NC(=O)c2ccc(C)c(NC(=O)c3ccno3)c2)cc(C(F)(F)F)c1 | 77% | 32% | 84% | 97% | 100% | 91% | 77% | 87% | 100% | 99% | 60% | 63% | 90% | 93% | 92% | 100% | 100% | 93% | 100% | 94% | kinase still bound, per cent of control [21]: 83%; kinase still bound, per cent of control [22]: 96%; kinase still bound, per cent of control [23]: 100%; kinase still bound, per cent of control [24]: 91%; kinase still bound, per cent of control [25]: 91%; kinase still bound, per cent of control [26]: 100%; kinase still bound, per cent of control [27]: 91%; kinase still bound, per cent of control [28]: 76%; kinase still bound, per cent of control [29]: 100%; kinase still bound, per cent of control [30]: 100%; kinase still bound, per cent of control [31]: 100%; kinase still bound, per cent of control [32]: 100%; kinase still bound, per cent of control [33]: 100%; kinase still bound, per cent of control [34]: 100%; kinase still bound, per cent of control [35]: 100%; kinase still bound, per cent of control [36]: 96%; kinase still bound, per cent of control [37]: 85%; kinase still bound, per cent of control [38]: 100%; kinase still bound, per cent of control [39]: 84%; kinase still bound, per cent of control [40]: 54%
2 | O=C(NC1CC1)c1cccc(-c2ccc3c(NC(=O)C4CC4)n[nH]c3c2)c1 | 10% | 100% | 48% | 88% | 54% | 75% | 96% | 100% | 94% | 30% | 100% | 100% | 78% | 100% | 84% | 100% | 96% | 72% | 86% | 81% | kinase still bound, per cent of control [21]: 77%; kinase still bound, per cent of control [22]: 100%; kinase still bound, per cent of control [23]: 78%; kinase still bound, per cent of control [24]: 13%; kinase still bound, per cent of control [25]: 100%; kinase still bound, per cent of control [26]: 100%; kinase still bound, per cent of control [27]: 90%; kinase still bound, per cent of control [28]: 6.8%; kinase still bound, per cent of control [29]: 82%; kinase still bound, per cent of control [30]: 100%; kinase still bound, per cent of control [31]: 10%; kinase still bound, per cent of control [32]: 76%; kinase still bound, per cent of control [33]: 100%; kinase still bound, per cent of control [34]: 89%; kinase still bound, per cent of control [35]: 95%; kinase still bound, per cent of control [36]: 77%; kinase still bound, per cent of control [37]: 100%; kinase still bound, per cent of control [38]: 77%; kinase still bound, per cent of control [39]: 100%; kinase still bound, per cent of control [40]: 90%
